For data set [1], the system named is HeLa cells. In words: Permeability of free dye and probes in live cells (fluorescence imaging). The class given is cell-based, human. As to conditions: live HeLa cells, probes 24 μM (AAN 5 μM), 1 h, 37 °C, one-photon fluorescence imaging with LysoTracker. How it is done: Supplementary Figure 5. Detection of caspase activities in live mammalian cells. (a) One-photon images of AAN (5 μM)/probes (24 μM)/DMSO (blank) in live HeLa cells after 1-h incubation together with LysoTracker. (Panels 1-7) bright field; (Panels 8-14) λex = 405 nm, λem = 420-480 nm (indicative of probes, blue); (Panels 15-21) λex = 405 nm, λem = 470-500 nm (indicative of AAN, green); (Panels 22-28) LysoTracker (λex = 543 nm, λem = 560-615 nm, red); (Panels 29-35) merged images of blue/red channels. Scale bar: 20 μm. (b) Bioimaging of NIH/3T3 cells transfected with active caspase-1 (Panels 2/3/5/6; 50 ng)/caspase-3 (Panels 8/9; 15 ng)/caspase-8 (Panels 11/12; 5 ng) with/without inhibitor treatment (Panels 3/6/9/12, 50 μM of Z-VAD-FMK incubated for 1 h before probes were added) as well as control cells (Panels 1/4/7/10, no caspase transfection) by using C1RB (24 μM)/C1FS (12 μM) for caspase-1, C3RA (24 μM) for caspase-3 and C8RA (24 μM) for caspase-8. Cells were co-stained with membrane tracker. (Green) signals from caspase-cleaved probes (λex = 760 nm, λem = 480-550 nm for all probes, except for C1FS with λem = 450-550 nm). (Red) membrane tracker (λex = 650 nm, λem = 655-740 nm). (Inset) bright field. Scale bar = 10 μm. […]
XTT assay. The cytotoxicity of our probes was determined by using the XTT colorimetric cell proliferation kit (Roche) following manufacturer’s guidelines. […]

The subject of data set [2] is caspase-3/-7-like activities in brain slices. In words: TPFM of caspase-3 activation in brain slices of ethanol-intoxicated mouse. The conditions noted are these: 200 μM, 3 h prior to C3RA. How it is done: Figure 4 Imaging endogenous caspase activities in deep tissues. (a) TPFM of caspase-3 activation in brain slices of ethanol-intoxicated 7-day-old C57BL/6 mouse using C3RA (120 μM, 3 h). Top: 3D images of the mouse brain slice taken along the Z-axis from 0 to 160 μm at 10x magnification. Bottom: images taken at a depth of 120 μm at 40x magnification. […]: control slices (saline-treated); panels 2/6/4/8: treated with caspase-3/7 inhibitor I (200 μM, 3 h). Scale bar = 50 μm. (b) RFU readings extracted from (a) (FTPFM, blue bars) versus those from in vitro enzymatic assays using lysates from the same brain slices (RFU, orange bars). The signal from saline controls was set as “0” and that from ethanol-treated samples was set as “1” in RFU quantification. Due to the base-level active caspase-3 in the saline controls, negative readings were shown with inhibitor-treated samples. (c) WB analysis of caspase-3/-1/-8 activation in lysates of the same mouse brain slices shown in (a). (d) Normalized RFU readings from in vitro enzymatic assays using brain lysates (300 μg) of saline/ethanol treated mice after incubation with C1RB/C3RA/C8RA (6 μM) for 1 h at 37 °C.
All two-photon images were taken on a Leica TCS SP5X Confocal Microscope System. […]

Consider `CC(=O)c1ccc2cc(N)ccc2c1` [AAN, 2-acetyl-6-aminonaphthalene, reference compound], for which the cell permeability entry in data set [1] is “diffuse freely”. On to `COC[C@@H]1CCCN1S(=O)(=O)c1ccc2c(c1)C(=O)C(=O)N2` [caspase-3/7 inhibitor I, reference compound], for which the “effect of inhibitor pre-treatment on C3RA fluorescence in brain slices” value in data set [2] is “completely abolished the fluorescence”.
